Reference: ChEMBL document CHEMBL1201861, “Genomics of Drug Sensitity in Cancer screening data, Wellcome Trust Sanger Institute”

Assays:
Test in all cases: cells
CTB-1 = type: functional, cell-based, Homo sapiens; conditions: Homo sapiens, CTB-1
Description: SANGER: Inhibition of human CTB-1 cell growth in a cell viability assay.

D-502MG = type: functional, cell-based, Homo sapiens; conditions: Homo sapiens, D-502MG
Description: SANGER: Inhibition of human D-502MG cell growth in a cell viability assay.

EM-2 = type: functional, cell-based, Homo sapiens; conditions: Homo sapiens, EM-2;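 note: growth inhibition of EM-2 cells, read out with a cell viability assay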
Description: SANGER: Inhibition of human EM-2 cell growth in a cell viability assay.

ES5 = type: functional, cell-based, Homo sapiens; conditions: Homo sapiens, ES5;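 note: growth inhibition of human ES5 cells, read out by a cell viability assay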
Description: SANGER: Inhibition of human ES5 cell growth in a cell viability assay.

EW-3 = type: functional, cell-based, Homo sapiens; conditions: Homo sapiens, EW-3;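 note: cell viability assay read-out, IC50 reflects inhibition of growth of the EW-3 cells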
Description: SANGER: Inhibition of human EW-3 cell growth in a cell viability assay.

GAK = type: functional, cell-based, Homo sapiens; conditions: Homo sapiens, GAK;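 note: cell growth inhibition read out by a cell viability assay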
Description: SANGER: Inhibition of human GAK cell growth in a cell viability assay.

GB-1 = type: functional, cell-based, Homo sapiens; conditions: Homo sapiens, GB-1;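 note: growth of GB-1 cells judged by a viability assay, IC50 marks the concentration inhibiting growth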
Description: SANGER: Inhibition of human GB-1 cell growth in a cell viability assay.

GT3TKB = type: functional, cell-based, Homo sapiens; conditions: Homo sapiens, GT3TKB;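 note: growth inhibition of the cell line, read out with a cell viability assay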
Description: SANGER: Inhibition of human GT3TKB cell growth in a cell viability assay.

HCC1187 = type: functional, cell-based, Homo sapiens; conditions: Homo sapiens, HCC1187;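 note: growth inhibition of HCC1187 cells, read out with a cell viability assay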
Description: SANGER: Inhibition of human HCC1187 cell growth in a cell viability assay.

IA-LM = type: functional, cell-based; conditions: Homo sapiens;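 note: cell viability assay measuring growth inhibition of human IA-LM cells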
Description: SANGER: Inhibition of human IA-LM cell growth in a cell viability assay.

IST-MEL1 = type: functional, cell-based, Homo sapiens; conditions: Homo sapiens, IST-MEL1;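 note: growth inhibition of the cell line, read out with a cell viability assay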
Description: SANGER: Inhibition of human IST-MEL1 cell growth in a cell viability assay.

K5 = type: functional, cell-based, Homo sapiens; conditions: Homo sapiens, K5
Description: SANGER: Inhibition of human K5 cell growth in a cell viability assay.

KARPAS-299 = type: functional, cell-based, Homo sapiens; conditions: Homo sapiens, KARPAS-299
Description: SANGER: Inhibition of human KARPAS-299 cell growth in a cell viability assay.

KE-37 = type: functional, cell-based, Homo sapiens; conditions: Homo sapiens, KE-37;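 note: growth inhibition of KE-37 cells, read out with a cell viability assay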
Description: SANGER: Inhibition of human KE-37 cell growth in a cell viability assay.

KINGS-1 = type: functional, cell-based, Homo sapiens; conditions: Homo sapiens, KINGS-1;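 note: cell viability assay measuring suppression of KINGS-1 cell growth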
Description: SANGER: Inhibition of human KINGS-1 cell growth in a cell viability assay.

KLE = type: functional, cell-based; conditions: Homo sapiens;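 note: growth inhibition of human KLE cells, read out with a cell viability assay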
Description: SANGER: Inhibition of human KLE cell growth in a cell viability assay.

LB996-RCC = type: functional, cell-based, Homo sapiens; conditions: Homo sapiens, LB996-RCC
Description: SANGER: Inhibition of human LB996-RCC cell growth in a cell viability assay.

LS-123 = type: functional, cell-based, Homo sapiens; conditions: Homo sapiens, LS-123
Description: SANGER: Inhibition of human LS-123 cell growth in a cell viability assay.

MFM-223 = type: functional, cell-based, Homo sapiens; conditions: Homo sapiens, MFM-223
Description: SANGER: Inhibition of human MFM-223 cell growth in a cell viability assay.

ML-2 = type: functional, cell-based, Homo sapiens; conditions: Homo sapiens, ML-2;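 note: growth inhibition of ML-2 cells, measured with a cell viability readout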
Description: SANGER: Inhibition of human ML-2 cell growth in a cell viability assay.

MN-60 = type: functional, cell-based, Homo sapiens; conditions: Homo sapiens, MN-60;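 note: growth inhibition of the MN-60 cell line, determined with a cell viability assay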
Description: SANGER: Inhibition of human MN-60 cell growth in a cell viability assay.

MOLT-16 = type: functional, cell-based, Homo sapiens; conditions: Homo sapiens, MOLT-16;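 note: growth inhibition of human MOLT-16 cells, read out with a cell viability assay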
Description: SANGER: Inhibition of human MOLT-16 cell growth in a cell viability assay.

MOLT-4 = type: functional, cell-based, Homo sapiens; conditions: Homo sapiens, MOLT-4;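 note: growth inhibition of MOLT-4 cells, determined with a cell viability readout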
Description: SANGER: Inhibition of human MOLT-4 cell growth in a cell viability assay.

NB6 = type: functional, cell-based, Homo sapiens; conditions: Homo sapiens, NB6;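 note: growth inhibition of NB6 cells, read out by a cell viability assay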
Description: SANGER: Inhibition of human NB6 cell growth in a cell viability assay.

NCI-H1092 = type: functional, cell-based, Homo sapiens; conditions: Homo sapiens, NCI-H1092;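 note: cell growth inhibition measured with a cell viability assay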
Description: SANGER: Inhibition of human NCI-H1092 cell growth in a cell viability assay.

NCI-H1395 = type: functional, cell-based, Homo sapiens; conditions: Homo sapiens, NCI-H1395;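 note: cell viability assay read-out quantifying reduced proliferation of human NCI-H1395 cells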
Description: SANGER: Inhibition of human NCI-H1395 cell growth in a cell viability assay.

NCI-H1581 = type: functional, cell-based, Homo sapiens; conditions: Homo sapiens, NCI-H1581;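 note: cell growth inhibition read out by a viability assay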
Description: SANGER: Inhibition of human NCI-H1581 cell growth in a cell viability assay.

NCI-H1650 = type: functional, cell-based, Homo sapiens; conditions: Homo sapiens, NCI-H1650;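 note: growth inhibition of human NCI-H1650 cells measured by a cell viability assay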
Description: SANGER: Inhibition of human NCI-H1650 cell growth in a cell viability assay.

NCI-H1770 = type: functional, cell-based, Homo sapiens; conditions: Homo sapiens, NCI-H1770;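 note: growth inhibition of NCI-H1770 cells determined with a viability readout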
Description: SANGER: Inhibition of human NCI-H1770 cell growth in a cell viability assay.

NCI-H2126 = type: functional, cell-based, Homo sapiens; conditions: Homo sapiens, NCI-H2126;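 note: growth inhibition of the cancer cell line, determined with a cell viability readout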
Description: SANGER: Inhibition of human NCI-H2126 cell growth in a cell viability assay.

NCI-H526 = type: functional, cell-based, Homo sapiens; conditions: Homo sapiens, NCI-H526;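 note: growth inhibition of the human NCI-H526 cell line, measured by a cell viability assay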
Description: SANGER: Inhibition of human NCI-H526 cell growth in a cell viability assay.

NCI-H720 = type: functional, cell-based, Homo sapiens; conditions: Homo sapiens, NCI-H720;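 note: growth inhibition of human NCI-H720 cells determined by a cell viability assay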
Description: SANGER: Inhibition of human NCI-H720 cell growth in a cell viability assay.

NOS-1 = type: functional, cell-based, Homo sapiens; conditions: Homo sapiens, NOS-1;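 note: growth inhibition of the human NOS-1 cell line, read out with a cell viability assay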
Description: SANGER: Inhibition of human NOS-1 cell growth in a cell viability assay.

OCI-AML2 = type: functional, cell-based, Homo sapiens; conditions: Homo sapiens, OCI-AML2;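 note: growth inhibition of OCI-AML2 cells, read out with a cell viability assay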
Description: SANGER: Inhibition of human OCI-AML2 cell growth in a cell viability assay.

PSN1 = type: functional, cell-based, Homo sapiens; conditions: Homo sapiens, PSN1;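 note: suppression of growth of human PSN1 cells, read out by a cell viability assay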
Description: SANGER: Inhibition of human PSN1 cell growth in a cell viability assay.

RKO = type: functional, cell-based, Homo sapiens; conditions: Homo sapiens, RKO;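 note: growth inhibition of human RKO cells, read out with a cell viability assay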
Description: SANGER: Inhibition of human RKO cell growth in a cell viability assay.

SF-539 = type: functional, cell-based, Homo sapiens; conditions: Homo sapiens, SF-539;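 note: Read-out is a cell viability assay, with IC50 reflecting inhibition of cell growth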
Description: SANGER: Inhibition of human SF539 cell growth in a cell viability assay.

SNB-75 = type: functional, cell-based, Homo sapiens; conditions: Homo sapiens, SNB-75;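 note: cell viability assay measuring growth inhibition of human SNB-75 cells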
Description: SANGER: Inhibition of human SNB75 cell growth in a cell viability assay.

697 = type: functional, cell-based, Homo sapiens; conditions: Homo sapiens
Description: SANGER: Inhibition of human 697 cell growth in a cell viability assay.

ATN-1 = type: functional, cell-based, Homo sapiens; conditions: Homo sapiens, ATN-1;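 note: growth inhibition of human ATN-1 cells, read out with a cell viability assay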
Description: SANGER: Inhibition of human ATN-1 cell growth in a cell viability assay.

BB30-HNC = type: functional, cell-based, Homo sapiens; conditions: Homo sapiens, BB30-HNC;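 note: growth inhibition of the cultured cell line, read out by a cell viability assay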
Description: SANGER: Inhibition of human BB30-HNC cell growth in a cell viability assay.

BB49-HNC = type: functional, cell-based, Homo sapiens; conditions: Homo sapiens, BB49-HNC;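 note: cell viability assay read-out, reported as inhibition of BB49-HNC cell growth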
Description: SANGER: Inhibition of human BB49-HNC cell growth in a cell viability assay.

BV-173 = type: functional, cell-based, Homo sapiens; conditions: Homo sapiens, BV-173
Description: SANGER: Inhibition of human BV-173 cell growth in a cell viability assay.

TE-10 = type: functional, cell-based, Homo sapiens; conditions: Homo sapiens, TE-10;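 note: growth inhibition of TE-10 cells, measured by a cell viability assay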
Description: SANGER: Inhibition of human TE-10 cell growth in a cell viability assay.

U-266 = type: functional, cell-based, Homo sapiens; conditions: Homo sapiens, U-266
Description: SANGER: Inhibition of human U-266 cell growth in a cell viability assay.

U-87 MG = type: functional, cell-based, Homo sapiens, U-87MG ATCC; conditions: Homo sapiens, U-87 MG;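 note: growth inhibition of the cells measured with a viability assay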
Description: SANGER: Inhibition of human U-87-MG cell growth in a cell viability assay.

VA-ES-BJ = type: functional, cell-based, Homo sapiens; conditions: Homo sapiens, VA-ES-BJ;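 note: growth inhibition of the VA-ES-BJ cell line, read out by a cell viability assay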
Description: SANGER: Inhibition of human VA-ES-BJ cell growth in a cell viability assay.

no-11 = type: functional, cell-based, Homo sapiens; conditions: Homo sapiens;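 note: growth inhibition of human NO-11 cells, read out with a cell viability assay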
Description: SANGER: Inhibition of human no-11 cell growth in a cell viability assay.

COLO-668 = type: functional, cell-based, Homo sapiens; conditions: Homo sapiens, COLO-668
Description: SANGER: Inhibition of human COLO-668 cell growth in a cell viability assay.

KG-1 = type: functional, cell-based, Homo sapiens; conditions: Homo sapiens, KG-1;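 note: growth inhibition of KG-1 cells, read out by a cell viability assay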
Description: SANGER: Inhibition of human KG-1 cell growth in a cell viability assay.

Measured: IC50

COc1ccc(N(C(=O)Oc2c(C)cccc2C)c2ccnc(Nc3ccc(N4CCN(C)CC4)cc3)n2)c(OC)c1
4280 nM: TE-10
1160 nM: GB-1
1860 nM: KLE
463 nM: VA-ES-BJ
950 nM: NOS-1
< 20 nM: EM-2 | BV-173
56.7 nM: LB996-RCC
1850 nM: BB30-HNC
3400 nM: 697
1970 nM: KINGS-1
4360 nM: LS-123
358 nM: SNB-75
1700 nM: NB6
not listed: KG-1
> 5120 nM: all other assays above

O=C1NC(=O)c2c1c(-c1ccccc1Cl)cc1[nH]c3ccc(O)cc3c21
316 nM: ATN-1
242 nM: CTB-1
1330 nM: EM-2
1250 nM: SF-539
1700 nM: NCI-H720
434 nM: BV-173
484 nM: KE-37
862 nM: KG-1
431 nM: 697
1200 nM: MN-60
1500 nM: VA-ES-BJ
947 nM: EW-3
1360 nM: BB30-HNC
1420 nM: MOLT-16
> 2000 nM: all other assays above
